Here are results for 12 compounds from ChEMBL document CHEMBL1157990, “Iridal-type triterpenoids with ichthyotoxic activity from belamcanda chinensis” (J Nat Prod, 1999).

Converted amounts (≈) assume the structure as drawn.

The nature of the series: Ichthyotoxicity against Oryzias latipes after 24 hrs. The conditions noted are these: in vivo, read-out: TLm. Format: organism-based.
For the compound `CC(C)=CCC/C(C)=C/C=C/C(C)=C/[C@@H]1C[C@@]23[C@H](OCCC[C@@H]2/C(=C(/C)C=O)CC[C@]3(C)O)O1` [ANHYDROBELACHINAL], the LC50 at 24 h is more than 10 µg/mL.

Regarding `CCCCCCCCCCCCCC(=O)OCCC[C@@H]1/C(=C(/C)C=O)CC[C@](C)(O)[C@@]1(C)CC/C=C(\C)[C@H](O)C/C=C(\C)CCC=C(C)C` [IRISTECTORENE B], the LC50 at 24 h worked out at 3.5 µg/mL (≈ 5.11 µM). Consider `C=C(/C=C/C=C(\C)CCC=C(C)C)[C@@H]1CC[C@]2([C@H](CCCO)/C(=C(/C)C=O)CC[C@]2(C)O)[C@@H]1O`, for which the LC50 at 24 h was 1.6 µg/mL (≈ 3.4 µM). In the case of `CC(C)=CCC/C(C)=C/C=C/C(C)=C/[C@H]1C[C@@]23[C@H](OCCC[C@@H]2/C(=C(/C)C=O)CC[C@]3(C)O)O1` [EPIANHYDROBELACHINAL], the LC50 at 24 h is more than 10 µg/mL. In the case of `CCCCCCCCCCCCCC(=O)OCCC[C@@H]1/C(=C(/C)C=O)CC[C@](C)(O)[C@@]1(C)CC/C=C(\C)[C@@H](C/C=C(\C)CCC=C(C)C)OC(C)=O`, the LC50 at 24 h was more than 10 µg/mL. The same measure for `CC(C)=CCC/C(C)=C/C[C@@H](O)/C(C)=C/CC[C@@]1(C)[C@H](CCCO)/C(=C(/C)C=O)CC[C@]1(C)O` [ISOIRIDOGERMANAL]: 9.3 µg/mL (≈ 19.6 µM); for `CC(=O)OCCC[C@@H]1/C(=C(/C)C=O)CC[C@](C)(O)[C@@]1(C)CC/C=C(\C)[C@@H](C/C=C(\C)CCC=C(C)C)OC(C)=O`: more than 10 µg/mL. `CCCCCCCCCC(=O)OCCC[C@@H]1/C(=C(/C)C=O)CC[C@](C)(O)[C@@]1(C)CC/C=C(\C)[C@@H](C/C=C(\C)CCC=C(C)C)OC(C)=O`: the LC50 at 24 h was more than 30 µg/mL. Take `CC(C)=CCC/C(C)=C/C=C/C(C)=C/[C@H]1C[C@@]2(C(O)O1)[C@H](CCCO)/C(=C(/C)C=O)CC[C@]2(C)O` (some centres not stated) [BELACHINAL]: the LC50 at 24 h came out at 2.8 µg/mL (≈ 5.75 µM). With `C=C1CC/C=C(\C)C(=O)[C@H](O)[C@@H]2[C@@H]1CC2(C)C` [BUDDLEDIN B], the LC50 at 24 h is 1.2 µg/mL (≈ 5.12 µM). `CC(=O)OCCC[C@@H]1/C(=C(/C)C=O)CC[C@](C)(O)[C@@]1(C)CC/C=C(\C)[C@H](O)C/C=C(\C)CCC=C(C)C`: the LC50 at 24 h is 0.8 µg/mL (≈ 1.55 µM). To `CC(C)=CCC/C(C)=C/C=C/C(C)=C/[C@@H]1C[C@@]2(C(O)O1)[C@H](CCCO)/C(=C(/C)C=O)CC[C@]2(C)O` (some centres not stated) belongs 5.5 µg/mL (≈ 11.3 µM).
